We go through five compounds from patent publication US10988508B2, “Synthetic N-acetyl-muramic acid derivatives and uses thereof” (University of Delaware, priority 2015, dated 2021).

For series [1], the target named is T1, Nod2 (Homo sapiens, UniProt Q9HC29). On the set-up: expressed in transfected cells; host or cells: HEK293T. The settings on record: cited from earlier work.
Series [2] has as its target T1, Nod2. Kind of series: Nod2 half-life by cycloheximide chase and western blot in HEK 293T-Nod2myc/Tet-op cells. In kind it is cell-based. Further details: expressed in transfected cells; host or cells: HEK293T. To be noted: for stabilization of Nod2 (in words): compared to untreated control. The procedure:
HEK 293T-Nod2myc/Tet-op cells were incubated with MDP derivatives (compound D2 is shown) or water (Ctrl) and lysates were collected after cycloheximide treatment during the indicated time intervals. Equal amount of lysates were subjected to western blot and probed using rabbit anti-myc antibody. β-actin was used as a loading control.
Nod2 is a transiently stable protein. It is well-known that ligand binding can affect the stability of a receptor. We considered that the interaction of peptidoglycan derivatives with Nod2 could alter the stability of the protein. In order to determine if ligand interaction changes the half-life of Nod2, we analyzed the naturally occurring MDPs (D2, D9, D1), and a subset of the peptidoglycan derivatives with increased activity (D24, D25) or structural similarity (D53, D16) to D2 or D9. We made use of a tetracycline-induced Nod2 expressing cell line, an excellent match for endogenous Nod2 cell lines, and cycloheximide inhibition of protein synthesis to determine the half-life of Nod2 in the presence of the MDP derivatives. Half-life was determined by first order decay according to literature precedent. […] When Nod2 is not treated with a peptidoglycan derivative, the half-life is 7.1±1.4 hours. […] As compound D1 is the only compound tested that contains an amine, which will be positively charged at cellular pH, we were concerned that cell permeability may be a factor. We analyzed the ability of 6-amino-MDP (18 in Table 4), a MDP derivative that replaces the 6-primary-hydroxy group with an amine.

For series [3], the system named is E. coli ΔmurQ-KU cells. Kind of series: in vivo peptidoglycan remodeling and CuAAC fluorophore labeling, visualized by SIM. The settings on record: 0.2% (w/v) sugar, fosfomycin 200 μg/mL, IPTG 1 mM, CuAAC with rhodamine or Cy-5. In kind it is cell-based.
Series [4] relates to E. coli cells with AmgK, MurU and ΔMurQ. Nature of the series: labeling efficiency by flow cytometry (FACS) after click with Cy-5. To be noted: after CuAAC with Cy-5. In kind it is cell-based.
Series [5] concerns the target T1, Nod2. Nature of the series: Nod2-dependent NF-κB luciferase reporter assay in transfected HEK293T cells. The settings on record: 20 μM; for NF-KB Fold Activation ± SD: 12 h, HEK293T, (+) Nod2 plasmid normalized to (−) Nod2 plasmid.
The target in series [6] is T1, Nod2. Nature of the series: in vitro binding assay of Nod2. On the set-up: expressed in transfected cells; host or cells: HEK293T. From the text:
This could be from either the endogenous Nod2 and/or other targets of the bacterial cell wall ligands.

Series [7] addresses T2, mouse Nod2 (Mus musculus, UniProt Q8K3Z0).
T2 sequence (Q8K3Z0 1-1020): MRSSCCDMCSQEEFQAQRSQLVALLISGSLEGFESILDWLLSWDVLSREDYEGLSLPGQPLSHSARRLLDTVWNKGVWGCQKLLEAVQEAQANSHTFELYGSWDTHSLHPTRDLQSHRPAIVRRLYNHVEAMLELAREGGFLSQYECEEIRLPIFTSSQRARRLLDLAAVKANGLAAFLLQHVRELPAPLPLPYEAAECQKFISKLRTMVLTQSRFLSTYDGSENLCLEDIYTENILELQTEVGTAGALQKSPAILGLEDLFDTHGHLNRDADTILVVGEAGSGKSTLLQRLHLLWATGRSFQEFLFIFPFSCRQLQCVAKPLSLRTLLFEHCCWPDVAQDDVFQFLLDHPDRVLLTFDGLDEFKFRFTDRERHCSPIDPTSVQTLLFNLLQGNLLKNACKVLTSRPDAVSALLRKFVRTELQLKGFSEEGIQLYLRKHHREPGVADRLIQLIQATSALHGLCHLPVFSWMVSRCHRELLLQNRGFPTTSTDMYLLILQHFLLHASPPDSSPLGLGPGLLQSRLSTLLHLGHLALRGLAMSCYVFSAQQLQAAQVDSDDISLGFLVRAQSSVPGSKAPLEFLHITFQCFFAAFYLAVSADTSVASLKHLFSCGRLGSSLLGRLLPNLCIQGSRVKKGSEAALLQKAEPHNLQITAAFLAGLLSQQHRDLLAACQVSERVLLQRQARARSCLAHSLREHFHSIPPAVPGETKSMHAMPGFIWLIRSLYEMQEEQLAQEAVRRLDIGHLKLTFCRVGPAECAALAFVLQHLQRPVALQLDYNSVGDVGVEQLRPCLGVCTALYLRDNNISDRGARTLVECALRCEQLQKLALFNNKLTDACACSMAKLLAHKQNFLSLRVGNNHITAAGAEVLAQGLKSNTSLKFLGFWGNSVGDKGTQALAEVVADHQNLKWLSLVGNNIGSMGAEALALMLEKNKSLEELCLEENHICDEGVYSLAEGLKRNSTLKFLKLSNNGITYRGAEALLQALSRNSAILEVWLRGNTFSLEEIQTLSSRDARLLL
The settings on record: 200 μM, protein synthesis not inhibited; cited from earlier work.

For orientation: Kd means the free concentration of one partner at which half of the binding sites on the other are occupied at equilibrium, for simple one-to-one binding. Higher therefore signals lower affinity.

Entries after “also recorded” stand apart in the source; their conditions may differ. Where two headings read alike, the source gives them in different places.

T1 sequence (Q9HC29 whole entry): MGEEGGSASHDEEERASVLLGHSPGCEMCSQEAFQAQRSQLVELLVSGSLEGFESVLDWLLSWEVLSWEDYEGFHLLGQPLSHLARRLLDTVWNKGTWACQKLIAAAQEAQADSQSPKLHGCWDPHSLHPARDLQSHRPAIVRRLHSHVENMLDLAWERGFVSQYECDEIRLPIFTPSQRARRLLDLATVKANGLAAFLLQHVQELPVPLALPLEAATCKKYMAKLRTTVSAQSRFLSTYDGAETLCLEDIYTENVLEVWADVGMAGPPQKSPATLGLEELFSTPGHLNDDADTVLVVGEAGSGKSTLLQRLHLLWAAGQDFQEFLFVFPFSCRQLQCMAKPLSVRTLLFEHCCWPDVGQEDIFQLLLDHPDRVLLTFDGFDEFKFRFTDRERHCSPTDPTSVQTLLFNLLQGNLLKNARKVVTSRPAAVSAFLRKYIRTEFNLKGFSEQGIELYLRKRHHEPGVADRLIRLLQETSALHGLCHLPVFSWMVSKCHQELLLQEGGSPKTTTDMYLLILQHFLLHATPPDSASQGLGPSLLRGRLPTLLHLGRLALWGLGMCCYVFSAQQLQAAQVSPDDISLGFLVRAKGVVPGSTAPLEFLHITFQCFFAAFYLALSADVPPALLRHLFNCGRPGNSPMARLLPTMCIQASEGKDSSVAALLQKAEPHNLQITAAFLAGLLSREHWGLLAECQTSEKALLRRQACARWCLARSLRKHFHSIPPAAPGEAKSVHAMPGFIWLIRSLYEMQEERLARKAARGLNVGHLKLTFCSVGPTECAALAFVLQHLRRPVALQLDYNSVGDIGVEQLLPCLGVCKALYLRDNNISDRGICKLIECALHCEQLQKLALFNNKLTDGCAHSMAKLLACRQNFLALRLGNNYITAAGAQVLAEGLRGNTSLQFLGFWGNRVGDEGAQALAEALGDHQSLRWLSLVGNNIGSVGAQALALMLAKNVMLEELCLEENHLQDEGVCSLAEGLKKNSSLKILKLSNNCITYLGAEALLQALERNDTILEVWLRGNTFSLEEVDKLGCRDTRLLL

As to `CC(=O)NC1C(O)OC(CN)C(O)[C@@H]1O[C@H](C)C(=O)N[C@@H](C)C(=O)N[C@H](CCC(=O)O)C(N)=O` (some centres unmarked) [6-amino-MDP], in series [1], the “NF-κB activation in a Nod2-dependent manner (known)” value is “activate NF-κB in a Nod2-dependent manner”. Further, the “NF-KB Fold Activation ± SD” value in series [1] (value marked with reference 19) was 2.8 ± 0.1^19 Fold. Moreover, in series [2] (versus untreated), the “increase of the half-life of Nod2” value is ~3 fold.
`CC(=O)N[C@H]1C(O)O[C@H](CO)[C@@H](O)[C@@H]1O[C@H](C)C(=O)O` (some centres unmarked) [A2, N-acetyl-muramic acid]: in series [3], the “fluorescent labeling of cells under SIM” value is “couldn't detect any fluorescence”. In series [4], the “fluorescent signal in the gated Cy-5 channel” value is listed as “slight fluorescence intensity”.
For the compound `C[C@H](NC(=O)[C@@H](C)O[C@@H]1[C@@H](N)[C@H](O)O[C@H](CO)[C@H]1O)C(=O)N[C@H](CCC(=O)O)C(N)=O` [D1, (R)-5-amino-4-((S)-2-((R)-2-(((2R,3R,4R,5S,6R)-3-amino-2,5-dihydroxy-6-(hydroxymethyl)tetrahydro-2H-pyran-4-yl)oxy)propanamido)propanamido)-5-oxopentanoic acid], in series [5], the “NF-κB activation (in words)” value is given as “did not activate NF-κB; also recorded: does not elicit an immune response via the Nod2-dependent pathway” and the “NF-KB Fold Activation ± SD” value was “No activation”. For the same compound, the “stabilization of Nod2 (in words)” value in series [2] is “no stabilization of Nod2; also recorded: did not stabilize; also recorded: no stabilizing effect”.
Compound `CC(=O)N[C@H]1C(O)O[C@H](CO)[C@@H](O)[C@@H]1O[C@H](C)C(=O)N[C@@H](C)C(=O)N[C@H](CCC(=O)O)C(N)=O` (some centres unmarked) [D2, N-acetyl-MDP] showed a Kd in series [6] of 51 nM. In series [5], the “NF-KB Fold Activation ± SD” value is on record as 1.8 ± 0.3 Fold. The “stabilization of Nod2 (in words)” value in series [2] was “capable of stabilizing Nod2”. Besides, the “effect on Nod2 level” value in series [7] was “led to the degradation of Nod2”.
Consider `C[C@@H](NC(=O)[C@@H](C)OC1C(NC(=O)CO)[C@@H](O)OC(CO)[C@H]1O)C(=O)NC(CCC(=O)O)C(N)=O` (some centres unmarked) [D9, N-glycolyl-MDP], for which, in series [5], the “NF-KB Fold Activation ± SD” value came out at 3.1 ± 0.3 Fold. The “stabilization of Nod2 (in words)” value in series [2] is given as “capable of stabilizing Nod2”.
